Reference: US6620588B1, “Method of identifying inhibitors of topoisomerase DNA religation” (priority 2000, dated 2003)
Read-outs that look alike come from different tables or passages of the source.

Key:
[1] = system: MCV-TOP; experiment: Microtiter plate religation assay for MCV topoisomerase; assay type: biochemical, molluscum contagiosum virus
[2] = molecular target: T1, EU-TOPO (Bos taurus, UniProt F1MN93); assay type: biochemical, mammalian; settings: for dependence of EU-TOPO inhibition on the base 3′ of the scissile phosphate: EU TG+P compared with EU TA+P substrate; for IC50: read-out: IC50, inhibition of religation by EU-TOPO
T1 construct: purchased Gibco-BRL
Text: The DNA substrate was designed to contain a preferred site for topoisomerase IB action identified in Tetrahymena DNA (A. H. Andersen, E. Gocke, B. J. Bonven, O. F. Nielsen and O. Westergaard. 1985. Topoisomerase I has a strong binding preference for a conserved hexadecameric sequence in the promoter region of the rRNA gene from Tetrahymena pyriformis. Nuc. Acids Res. 13, 1543-1556; B. J. Bonven, E. Bocke and O. Westergaard. 1985. A High Affinity Topoisomerase I Binding Sequence is Clustered at DNase I Hypersensitive Sites in Tetrahymena R-Chromatin. Cell 41, 541-551).
Two orders of addition were compared. Reactions were carried out in which enzyme was preincubated with inhibitor before addition of DNA substrate (FIG. 5, “complete”), which would reveal inhibition at any step in the reaction pathway. Reactions were also carried out in which covalent complexes were formed, then inhibitor added, followed by the religation strand (FIG. 5, “religation”). The latter order of addition tested inhibition of the religation step only.
For EU-TOPO, two different substrate DNAs were tested, containing TA or TG as the bases flanking the scissile phosphate. […] 1998. Molecular Modeling Studies of the DNA-Topoisomerase I Ternary Cleavable Complex with Camptothecin. J. Med. Chem. 41, 2216-2226), so such effects were sought to be discriminated using the microtiter assay.
Standard reaction mixture for assaying EU-TOPO contains 2.5 units EU-TOPO, 2 nM substrate oligonucleotide, 20 mM Tris-Cl (pH 8.0), 72 mM KCl, 5 mM MgCl2, 5 mM DTT and 10% DMSO. EU-TOPO was obtained from Gibco-BRL. The EU-TOPO suicide substrate was based on an optimal sequence found in a Tetrahymena rRNA gene (see FIG. 2B) (A. H. Andersen, E. Gocke, B. J. Bonven, O. F. Nielsen and O. Westergaard. 1985. Topoisomerase I has a strong binding preference for a conserved hexadecameric sequence in the promoter region of the rRNA gene from Tetrahymena pyriformis. Nuc. Acids Res. 13, 1543-1556; B. J. Bonven, E. Bocke and O. Westergaard. 1985. A High Affinity Topoisomerase I Binding Sequence is Clustered at DNase I Hypersensitive Sites in Tetrahymena R-Chromatin. Cell 41, 541-551).
After the topoisomerase reactions were completed, mixtures were adjusted to 20 mM Tris-Cl (pH 8.0), 400 mM NaCl, 10 mM EDTA, and 0.1 mg/ml sonicated salmon sperm DNA in a final volume of 100 μl. 400 mM NaCl was omitted in EU-TOPO assay. The samples were added to avidin-coupled microtiter wells (Boehringer Mannheim), which were then gently agitated at room temperature for 1 hr. Unbound DNA was removed by 3 washes (200 μl, 5 min each) with 30 mM NaOH, 200 mM NaCl, 1 mM EDTA. Bound DNA was then adjusted to 10 mM Tris-Cl (pH 8.0) and 1 mM EDTA. The relative topoisomerase activity was determined using an anti-digoxigenin ELISA. Anti-digoxigenin-peroxidase Fab fragments (0.01 units, Pierce or Boehringer Mannheim) were added into wells and incubated for 1 hr at 37° C. Unbound Anti-digoxigenin peroxidase Fab fragments were removed by 5 washes (300 μl) with PBS containing 0.1% Tween 20. Bound DNA was then incubated with 200 μl of 3,3′-5,5′-tetramethylbenzidine (TMB) solution (Boehringer Mannheim) until sufficient blue product accumulated. The reaction was terminated by adding 100 μl of 1 M sulfuric acid. The resulting yellow color was quantitated at 450 nm.

T1 sequence (F1MN93 entry or part of it): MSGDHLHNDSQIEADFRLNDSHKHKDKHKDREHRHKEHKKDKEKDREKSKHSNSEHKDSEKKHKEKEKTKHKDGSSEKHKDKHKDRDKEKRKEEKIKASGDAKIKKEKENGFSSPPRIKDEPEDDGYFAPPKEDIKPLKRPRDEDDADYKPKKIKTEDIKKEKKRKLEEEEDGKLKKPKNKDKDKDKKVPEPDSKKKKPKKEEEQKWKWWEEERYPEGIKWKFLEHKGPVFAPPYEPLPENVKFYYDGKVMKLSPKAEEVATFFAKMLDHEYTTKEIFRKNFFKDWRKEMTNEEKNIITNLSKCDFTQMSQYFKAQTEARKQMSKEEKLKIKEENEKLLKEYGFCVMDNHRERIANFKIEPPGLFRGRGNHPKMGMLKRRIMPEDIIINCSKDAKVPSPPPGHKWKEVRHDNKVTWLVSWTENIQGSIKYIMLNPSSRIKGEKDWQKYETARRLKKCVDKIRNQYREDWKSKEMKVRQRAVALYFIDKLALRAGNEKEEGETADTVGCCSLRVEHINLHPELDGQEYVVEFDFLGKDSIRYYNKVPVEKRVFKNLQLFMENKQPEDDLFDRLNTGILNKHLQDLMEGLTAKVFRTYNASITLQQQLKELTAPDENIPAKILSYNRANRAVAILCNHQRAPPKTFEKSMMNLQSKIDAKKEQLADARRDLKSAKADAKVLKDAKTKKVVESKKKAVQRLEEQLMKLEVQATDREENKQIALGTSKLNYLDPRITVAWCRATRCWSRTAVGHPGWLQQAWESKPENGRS

CC[C@@]1(O)C(=O)OCc2c1cc1n(c2=O)Cc2cc3ccccc3nc2-1 [Camptothecin]
activity against MCV-TOP ([1]; FIG. 5A): not active
dependence of EU-TOPO inhibition on the base 3′ of the scissile phosphate [2]: more efficient when the 3′ base was G

(−)-epigallocatechin 3-O-gallate [EGCG]
effect on MCV-TOP ([1]; in the concentration range of the EU-TOPO IC50s (nanomolar)): no effect
IC50 ([2]; EU TA+P substrate (A/T base pair 3′ of the point of cleavage)): 500 nM
dependence of EU-TOPO inhibition on the base 3′ of the scissile phosphate [2]: far more inhibitory on the DNA substrate containing a G/C base pair 3′ of the point of cleavage
IC50 ([2]; EU TG+P substrate (G/C base pair 3′ of the point of cleavage)): 26 nM

Coumermycin A1
inhibition of MCV-TOP, religation step ([1]; inhibitor added after covalent complex formation, FIG. 5A): not religation
inhibition of MCV-TOP, complete reaction ([1]; inhibitor added to enzyme before DNA substrate, FIG. 5A): inhibit the complete reaction
dependence of EU-TOPO inhibition on the base 3′ of the scissile phosphate [2]: not sensitive
inhibition of EU-TOPO ([2]; FIGS. 5B and 5C): inhibited
inhibition of EU-TOPO, complete reaction compared with religation ([2]; two orders of addition): comparable
